The results in this text go back to article PMC7845594, “Novel Immune Modulators Enhance Caenorhabditis elegans Resistance to Multiple Pathogens” (mSphere, 2021).

The subject of one data set is glp-4(bn2) worms. As to the kind of experiment: Longevity (life span) assay. Conditions: 50 μM in NGM, E. coli OP50, Fig 3A. On the procedure: To test the long-term toxicity of the hit compounds, life span assays were carried out by placing sterile, young adult glp-4(bn2) worms on NGM (standard nematode growth media, defined in Materials and Methods) seeded with Escherichia coli OP50. […] Sterile worms were used to eliminate the need to transfer worms between plates during life span assays, and we elected to use glp-4(bn2) to induce sterility instead of using wild-type worms sterilized with 5-fluoro-2′-deoxyuridine (FUDR) because the interaction of the compounds could generate artifacts during the long course of life span experiments.
Worms were scored daily by prodding. […] The viability was normalized to a DMSO solvent control. […] Error bars represent standard error of the mean.
Worms were picked onto agar plates seeded with 50 µl of concentrated E. coli OP50. Compounds were added to liquid agar before pouring plates. Worms were scored every day for death by prodding with a platinum wire. Worms that escaped the plate or died on the wall of the plate were censored. Each compound was tested in at least three biological replicates, each including 50 to 70 worms.

A further data set has as its system C. elegans transcriptome. The data set is described as follows: Transcriptome profiling (Affymetrix microarrays), differentially expressed genes. The data set is classed as in vivo, Caenorhabditis elegans. The settings on record: downregulated genes. As for the experimental part:
To gain additional insight into the effect of LK molecules on C. elegans, young-adult, wild-type worms were treated with each drug at 100 µM for 8 h in the absence of pathogen. RNA was collected, and transcriptome profiling was performed.
Data were determined using Affymetrix microarrays, as described in Materials and Methods. Download Table S3, XLSX file, 0.07 MB.
Transcriptome profiling was performed on ∼6,000 wild-type, young adult worms incubated with either LK molecules or DMSO for 8 h. RNA isolation was performed using TRIzol extraction, followed by cleanup using RNeasy columns according to the manufacturer’s protocol. Each condition was analyzed in triplicate. Microarray data have been deposited in the GEO database, accession number GSE137516. […] Clustering and generation of the heat map was performed using Cluster 3.0 ([98]) and Treeview ([99]), respectively. Fold change of genes were normalized to average fold change of that gene over all clustered conditions. Genes and conditions were clustered using Euclidean distance and average linkages. […] Microarray data for non-LK molecules were collected from GEO omnibus. WormEXP was used as a secondary method for confirming statistical significance of potential pathways stimulated by each of the LK molecules ([100]). Gene ontologies were generated using DAVID ([101], [102]).

For `O=c1cc(CNc2ccc(Br)cc2)nc2sccn12` [LK56], in the data set with glp-4(bn2) worms, the “TD50 (time to 50% death), life span” value was determined as 7.8 days. In addition, the “Fold Change” value with C. elegans transcriptome (Gene F37C12.7, Affy_ID 174751_at) stood at 0.2156; in the data set with C. elegans transcriptome (Gene R11.4, Affy_ID 177194_at), 0.488; with C. elegans transcriptome (Gene Y92C3B.2, Affy_ID 175744_s_at) it was 0.43.

On to `COC(=O)/C=C/C(=O)Nc1ccccc1` [LK32], for which the “TD50 (time to 50% death), life span” value in the data set with glp-4(bn2) worms came to 8.8 days.
